Reference: US20050019826A1 (priority 2000, published 2005)
Entries after “also recorded” stand apart in the source; their conditions may differ. One block for each molecule: values may come before it. Ends that are not written are not given here.

Experiments:
KDR [1] = experiment: Displacement of 125I-VEGF165 binding to CHO-KDR transfected cells by V1 derivatives; conditions: for peptide efficiency after change of C-terminal arginine: compared with V1; for Efficiency (% Emax): relative to V1 = 100
Text: FIG. 11. […] Experimental conditions are indicated in the legend of FIG. 10.
FIG. 12. […] Experimental conditions are indicated in the legend of FIG. 10.
(§1) Experimental conditions are indicated in the legend of FIG. 10.
FIG. 17. […] Experimental conditions are indicated in the legend of FIG. 10.

KDR [2] = experiment: Competition assay of 125I-VEGF binding to CHO-KDR cells; design: block of VEGF binding to CHO-KDR cells: dose or concentration left out as unconfirmed; conditions: for inhibitory effect on VEGF binding to KDR: fixed peptide concentration 2.1×10^−4M, heparin 1.8 μg/ml
Description: FIG. 1. […] (B) Effect of heparin. […] Data correspond to the mean and standard deviations of triplicate samples.
FIG. 4. […] Data represent the means and standard deviations of triplicate samples.
FIG. 5. […] Data represent the mean and standard deviations of triplicate samples.
(§2) Competition assay of binding to CHO-KDR cells. CHO-KDR cells were seeded in 24-well plates at a density of 5×10^5 cells/well. After 24 h, subconfluent plates were transferred at 4° C., and all subsequent operations were done at 4° C. […] After 3 h, cells were washed five times with binding buffer and solubilized by the addition of 0.5 M NaOH. The amount of radioactivity bound to the cells was counted in a gamma counter (LKB 1261 Multigamma). The receptor affinity and the number of binding sites per cell were determined by Scatchard's analysis (Scatchard, 1986).

VEGF-R2 on HUV-EC Cells = experiment: 125I-VEGF165 binding to HUV-EC cells (Scatchard); design: species or system human; conditions: V1 40 μg/ml
Text: as §1
(see FIGS. 16A, B and C).

NIH 3T3 fibroblasts = experiment: NIH3T3 fibroblast proliferation; assay type: cell-based; conditions: 24 h
Description: FIG. 8. V1 acts specifically on endothelial cells. CPAE and NIH 3T3 fibroblasts were cultured with or without V1 peptide, and the changes in cell proliferation were measured after 24 h. Data represent the means and standard deviations of proliferation inhibition percentages for triplicate samples, and similar results were obtained in two independent experiments.
(§3) Cell proliferation assay. To test the anti-VEGF antibody neutralizing effect, CPAE cells were plated into 96-well tissue culture plates at a density of 500 cells/well. After 24 h, various concentrations of anti-VEGF antibody were added. The cells were cultured for an additional day and cell proliferation was measured using the Cell proliferation ELISA kit from Boerhinger (Indianapolis, Ind.). Cells were incubated with BrdU for 4 h at 37° C., and the incorporation of BrdU in newly synthetized DNA was quantified by immunoassay as described by the manufacturer. To investigate the peptide effect, after 24 h of CPAE cell growth, 2.1×10^−4M synthetic peptides were added daily to the culture medium. Cell proliferation was assessed after 24 h, 48 h or 72 h as described above. […] Cells were trypsinized and counted after 5 days using a Coulter counter.

KDR [3] = target: T1, KDR (Homo sapiens, UniProt P35968); experiment: HUAE cell proliferation induced by KDR anti-idiotypic antibodies (AIA); assay type: cell-based; conditions: 100 ng/ml KDR anti-idiotypic antibodies, peptide daily, 5 days
T1 construct: endogenous in cells; host or cells: HUAE cells
Description: (§4) FIG. 7. […] Cells were counted after 5 days. Data are means of proliferation inhibition percentages for triplicate samples.
as §3

[4] = system: Human Umbilical Artery Endothelial Cells (HUAE); experiment: HUAE cell proliferation induced by VEGF; assay type: cell-based; conditions: 2 ng/ml VEGF, peptide daily, 5 days
Description: as §4, §3

[5] = system: VEGF-induced corneal angiogenesis; experiment: Rabbit corneal pocket assay; assay type: in vivo, New Zealand rabbit; conditions: day 12; for effect on VEGF-induced corneal angiogenic response: implant 2 pmol VEGF + 30 nmol peptide; for neovascularization by peptide compared with vehicle alone: implant 30 nmol peptide, absence of VEGF
Description: FIG. 9. V1 inhibits corneal angiogenesis in vivo.
Rabbit corneal pocket assay. […] These implants were inserted in New Zealand rabbit (Elevage du Trottis, Esperce, France) corneal stroma 2 mm away from the limbus (Favard et al, 1991). Neovascularization was assessed on day 12 by direct examination with a slit lamp and scored according to a 4 grade scale (grade 1: less than 1 mm long neovessels, grade 2: 1 mm long neovessels, grade 3: 1 to 2 mm long neovessels, grade 4: neovessels extending to the implant). Means and standard deviations were determined on 8 implant groups for each condition.

[6] = system: Calf pulmonary artery endothelial cells (CPAE); experiment: CPAE cell proliferation assay (BrdU incorporation); assay type: cell-based; conditions: 2.1×10^−4M synthetic peptide, 24 h
Description: FIG. 3. The anti-VEGF antibody blocks CPAE cell growth. CPAE cell growth was measured in cultures supplemented with various concentrations of anti-VEGF antibody and compared with untreated cultures. Data represent means and standard deviations of proliferation inhibition for triplicate samples and are representative of two independent experiments.
FIG. 6. V1 inhibits CPAE cell proliferation. CPAE cell growth was measured after 24h of incubation in presence of synthetic peptides selected by antibody binding (A) or by KDR binding (B) and compared with untreated cultures. Data represent means and standard deviations of proliferation inhibition for triplicates and are representative of three independent experiments.
as §3

KDR [7] = experiment: ELISA of the phage-displayed peptide binding to CHO-KDR cells; conditions: clones selected by anti-VEGF antibody binding, 10^12 pfu/ml
Description: FIG. 2. […] Clones selected by KDR binding (10^13 pfu/ml) (A) or by anti-VEGF antibody binding (10^12 pfu/ml) (B) were compared with M13 phage particles (control). Results are representative of three independent assays.
Exponentially growing CHO-KDR cells were seeded in 96-well microtiter plates at 7×10^4 cells/well and left overnight at 37° C. Cells were fixed with paraformaldehyde (4% in PBS) for 15 min at room temperature and washed with PBS. Wells were then filled with PBS-Glycine 0.2%, kept for 15 min at room temperature and then washed with PBS. Phage particles (10^12 or 10^13/ml) were added to each well and incubated 2 h at room temperature. Wells were washed with PBS and the amount of bound phage was detected with peroxidase-conjugated anti-M13 phage serum (Pharmacia Biotech, Uppsala, Sweden).

[8] = system: Human umbilical vein endothelial cell (HUVEC); experiment: VEGF165 induced HUVEC proliferation; assay type: cell-based; conditions: V1 400 μg/ml, various VEGF165 concentrations, 96 hours
Description: FIG. 13. Effect of V1 (400 μg/ml) VEGF165 induced HUVEC proliferation. Various concentrations of VEGF165 were added during 96 hours.
The inhibitory effect of V1 on Human umbilical vein endothelial cell (HUVEC) in primary culture.

[9] = system: 125I-VEGF-receptor complexes (VEGF-R2, NP1) on HUV-EC cells; experiment: Cross linking of 125I VEGF165 to HUV-EC cells; assay type: binding, human; conditions: V1 2.4×10^−4M and 4.8×10^−4M, 125I VEGF165 160 pM
Text: FIG. 19. […] 1: Total binding. […] 3: V1, (2.4×10^−4M). 4: V1, (4.8×10^−4M).

[10] = target: T2, recombinant KDR expressed at the membrane surface of CHO-KDR cells (UniProt P35968 20-1356, limits assumed); experiment: displacement of 125I-VEGF165 from CHO-KDR transfected cells
T2 construct: whole, on cells; also called VEGFR-2; VEGF-R2
Description: as §2, with “5×10⁵” for “5×10^5”

[11] = heparin various amounts, PlGF 50 ng/ml

T1 sequence (P35968 20-1356): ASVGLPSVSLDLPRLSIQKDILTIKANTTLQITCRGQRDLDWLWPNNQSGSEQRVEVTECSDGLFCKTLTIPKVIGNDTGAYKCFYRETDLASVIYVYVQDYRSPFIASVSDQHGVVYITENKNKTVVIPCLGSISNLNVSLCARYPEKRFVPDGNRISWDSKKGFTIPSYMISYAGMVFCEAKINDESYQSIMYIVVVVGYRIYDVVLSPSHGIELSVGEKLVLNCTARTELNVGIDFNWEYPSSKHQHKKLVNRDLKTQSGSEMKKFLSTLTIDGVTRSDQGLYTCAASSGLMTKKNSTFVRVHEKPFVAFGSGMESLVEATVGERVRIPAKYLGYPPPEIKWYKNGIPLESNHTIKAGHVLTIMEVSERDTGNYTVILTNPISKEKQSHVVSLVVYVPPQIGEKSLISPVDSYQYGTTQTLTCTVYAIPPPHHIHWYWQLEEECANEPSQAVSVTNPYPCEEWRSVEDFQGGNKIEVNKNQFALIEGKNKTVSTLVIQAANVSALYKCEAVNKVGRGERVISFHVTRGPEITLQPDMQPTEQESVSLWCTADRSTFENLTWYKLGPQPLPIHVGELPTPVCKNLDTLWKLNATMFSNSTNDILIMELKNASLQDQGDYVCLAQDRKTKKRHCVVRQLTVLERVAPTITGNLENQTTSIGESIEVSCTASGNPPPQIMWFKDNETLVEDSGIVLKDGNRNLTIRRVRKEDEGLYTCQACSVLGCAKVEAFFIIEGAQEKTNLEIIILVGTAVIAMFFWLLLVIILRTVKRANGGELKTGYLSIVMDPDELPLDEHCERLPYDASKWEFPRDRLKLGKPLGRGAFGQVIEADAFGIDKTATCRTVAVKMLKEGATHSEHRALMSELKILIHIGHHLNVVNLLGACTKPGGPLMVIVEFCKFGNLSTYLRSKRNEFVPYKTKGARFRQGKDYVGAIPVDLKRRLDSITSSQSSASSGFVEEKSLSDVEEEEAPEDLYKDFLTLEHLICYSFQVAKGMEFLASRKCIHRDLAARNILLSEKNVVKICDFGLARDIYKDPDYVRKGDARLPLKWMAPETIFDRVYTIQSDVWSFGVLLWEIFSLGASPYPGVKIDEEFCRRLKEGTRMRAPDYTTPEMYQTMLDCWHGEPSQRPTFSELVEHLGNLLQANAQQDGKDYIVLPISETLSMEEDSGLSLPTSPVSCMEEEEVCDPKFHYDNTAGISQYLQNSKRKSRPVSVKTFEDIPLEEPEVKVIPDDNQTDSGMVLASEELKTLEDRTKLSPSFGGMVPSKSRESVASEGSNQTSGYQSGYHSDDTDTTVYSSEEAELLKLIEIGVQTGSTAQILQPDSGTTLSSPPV
T2 sequence (P35968 20-1356 limits assumed): as the sequence (P35968 20-1356) above

Molecule: AAWLPPK [A9, V1 analogue, C-terminal arginine substituted by lysine]
peptide efficiency after change of C-terminal arginine (KDR [1]): also reduced the peptide efficiency

Molecule: AAWLPPR [A2]
Efficiency (% Emax) (KDR [1]): 61 % Emax

Molecule: ATALPP [A10]
peptide efficiency after change of C-terminal arginine (KDR [1]): significantly reduced the peptide efficiency

Molecule: ATALPPR [A3]
Efficiency (% Emax) (KDR [1]): 70 % Emax

Molecule: ATWAPPR [A4]
Efficiency (% Emax) (KDR [1]): 31 % Emax

Molecule: ATWLAPR [A5]
Efficiency (% Emax) (KDR [1]): 65 % Emax

Molecule: ATWLPAR [A6]
Efficiency (% Emax) (KDR [1]): 84 % Emax

Molecule: ATWLPPA [A7]
activity of alanine-substituted analogues in displacement of 125I-VEGF165 (KDR [1]; AlaScan): totally devoid of activity
Efficiency (% Emax) (KDR [1]): 0 % Emax

IC50 (KDR [2]; read-out: IC50 for inhibition of VEGF binding to CHO-KDR cells, estimated): 80 µM
IC50 (KDR [1]; 125I-VEGF 7 pM, heparin 1 μg/ml, 3 hours +4° C., read-out: CI50 (the source's name)): 18.8 µM
Molecule: ATWLPPR [V1, ATWLPPR]
block of VEGF binding to CHO-KDR cells (KDR [2]): nearly block VEGF binding
inhibitory effect on VEGF binding to KDR (KDR [2]): showed an inhibitory effect
effect on VEGF binding to HUV-EC receptors (VEGF-R2 on HUV-EC Cells): inhibited only the VEGF binding to high affinity receptors
effect on NIH 3T3 fibroblast proliferation (NIH 3T3 fibroblasts): did not modify the proliferation
effect on AIA-dependent cell proliferation (KDR [3]): could suppress the AIA-dependent cell proliferation
effect on VEGF-induced proliferation of human endothelial cells [4]: suppressed the mitogenic activity of VEGF in a dose dependent manner
effect on VEGF-induced corneal angiogenic response [5]: totally abolished
neovascularization by peptide compared with vehicle alone [5]: did not improve the generation of new blood vessels
reduction of CPAE cell proliferation [6]: 60%
ELISA signal of phage clone binding to CHO-KDR cells (KDR [7]): best reactivities
effect on VEGF-induced HUVEC proliferation [8]: inhibited by V1 in a non competitive manner
effect on binding and affinity of 125I VEGF165 to VR2 on transfected CHO cells (KDR [1]; 50 μg/ml V1, Scatchard): inhibited the binding; also recorded: affinity is lowered
effect on heparin agonistic effect on VEGF165 binding (KDR [1]; V1 50 μg/ml): inhibited this heparin agonistic effect
Efficiency (% Emax) (KDR [1]): 100 % Emax
labeling of 125I-VEGF-receptor complexes (240-260 kDa and 160-170 kDa) [9]: decreased

Molecule: ILDNYKL [V5]
effect on VEGF binding to CHO-KDR cells (KDR [2]; various concentrations, same conditions as V1): did not modify VEGF binding
effect on VEGF-induced proliferation of human endothelial cells [4]: no inhibitory effect
effect on VEGF-induced corneal angiogenic response [5]: not modified
neovascularization by peptide compared with vehicle alone [5]: did not improve the generation of new blood vessels

Molecule: LPPNPTK [V6]
inhibitory effect on VEGF binding to KDR (KDR [2]): did not affect the binding of VEGF to KDR; also recorded: no effect on VEGF binding to KDR
reduction of CPAE cell proliferation [6]: significantly inhibited the proliferation of endothelial cells
ELISA signal of phage clone binding to CHO-KDR cells (KDR [7]): best reactivities

Molecule: SLPAHAR [K4]
inhibitory effect on VEGF binding to KDR (KDR [2]): could partially inhibit VEGF binding to KDR
reduction of CPAE cell proliferation [6]: minor effect on endothelial growth

Molecule: heparin [reference compound]
optimal heparin concentration for increasing VEGF binding (KDR [2]): 1.8 µg/mL
effect on VEGF binding to CHO-KDR cells (KDR [2]; [11]): increase the binding of VEGF

Efficiency (% Emax) [10]: 0 % Emax
B1: V1 analogue A7 (Ala7-substituted analogue) (peptide)
peptide: ATWLPPA
notes: AlaScan analogue of ATWLPPR

B2: PlGF: placenta growth factor (R & D Systems) (protein)
chain: AVPPQQWALSAGNGSSEVEVVPFQEVWGRSYCRALERLVDVVSEYPSEVEHMFSPSCVSLLRCTGCCGDENLHCVPVETANVTMQLLKIRSGDRPSYVELTFSQHVRCECRPLREKMKPERCGDAVPRR
effect on VEGF binding to CHO-KDR cells (KDR [2]; [11]): not modifying VEGF binding
